“And” between values parts separate entries of the source, which are not always exact repeats. Identical values can stand only once.
Tested on: MV/FrankfurtMain.DEU/17.11 (genotype D8)
Test: Rectal temperature of MeV-infected squirrel monkeys
Assay type: in vivo, squirrel monkeys (Saimiri sciureus)
Conditions: for Temperature: individual animals
Method: All animal experiments were carried out in compliance with the regulations of German animal protection laws and authorized by the Regierungspräsidium Darmstadt, Germany (Dezernat V54 – Veterinärwesen und Verbraucherschutz, Hilpertstrasse 31, 64295 Darmstadt). Adult male and female squirrel monkeys (Saimiri sciureus) were obtained from BioPRIM, 31450 Baziege, or CNRS 0846 Primatologie, 13790 Rousset, France. Each experimental group was housed in a separate room, and animals of the same sex were caged together within the respective groups. For the single-dose pharmacokinetic experiment, animals were anesthetized, and the drug was given through a stomach tube at a concentration of 50 mg/kg bodyweight. Blood samples were collected after 15, 30, and 60 min, and 2, 3, 6, and 24 h. For efficacy assessment, groups of 6 animals were left untreated or treated with 50 mg/kg of ERDRP-0519 twice daily for two weeks, starting either 12 h before or 3 or 7 days after intranasal infection with 10^6 TCID50 of MV/FrankfurtMain.DEU/17.11. Clinical signs, rectal temperature, and weight were recorded daily, and throat swabs and blood samples were collected before infection and twice weekly thereafter. On day 21 post-infection, the animals were euthanized, necropsied, and samples were collected for histological analysis.

Cn1nc(C(F)(F)F)cc1C(=O)Nc1ccc(S(=O)(=O)N2CCCC[C@H]2CCN2CCOCC2)cc1 [ERDRP-0519]
Temperature, Mean Diff, untreated vs. therapeutic (d7) (Row 3 (day 7)): 0.4333
Temperature, Mean Diff, untreated vs. prophylactic (Row 4 (day 10)): 0.5333
Temperature, Mean Diff, untreated vs. therapeutic (d3) (Row 4 (day 10)): 0.3667
Temperature, Mean Diff, untreated vs. therapeutic (d7) (Row 4 (day 10)): 0.5
Temperature, Mean Diff, untreated vs. prophylactic (Row 5 (day 14)): -0.25
Temperature, Mean Diff, untreated vs. therapeutic (d3) (Row 5 (day 14)): 0.4
Temperature, Mean Diff, untreated vs. therapeutic (d7) (Row 5 (day 14)): 0.3
Temperature, Mean Diff, untreated vs. prophylactic (Row 6 (day 17)): 0.1667
Temperature, Mean Diff, untreated vs. therapeutic (d3) (Row 6 (day 17)): 0.24
Temperature, Mean Diff, untreated vs. therapeutic (d7) (Row 6 (day 17)): 0.2333
Temperature, Mean Diff, untreated vs. prophylactic (Row 7 (day 21)): -0.3167
Temperature, Mean Diff, untreated vs. therapeutic (d3) (Row 7 (day 21)): -0.1
Temperature, Mean Diff, untreated vs. therapeutic (d7) (Row 7 (day 21)): -0.1167
Temperature (prophylactic group, day 0): 38.9 °C and 38.6 °C and 38.7 °C (2×) and 39.3 °C and 38.2 °C
Temperature (prophylactic group, day 3): 38.6 °C and 38.5 °C and 39.1 °C and 39 °C and 37.5 °C and 38.8 °C
Temperature (prophylactic group, day 7): 39.3 °C (2×) and 38.5 °C and 38.7 °C and 38.8 °C and 37.3 °C
Temperature (prophylactic group, day 10): 39.8 °C and 39.3 °C (2×) and 38.9 °C and 38.3 °C and 39.7 °C
Temperature (prophylactic group, day 14): 40.1 °C and 40.5 °C (2×) and 39.6 °C (2×) and 39.1 °C
Temperature (prophylactic group, day 17): 39.7 °C (2×) and 39.8 °C and 39.3 °C and 38.7 °C and 40 °C
Temperature (prophylactic group, day 21): 39.5 °C (2×) and 39.7 °C (2×) and 39.1 °C and 39.6 °C
Temperature, group mean (Mean 2) (prophylactic, Row 1 (day 0)): 38.73
Temperature, group mean (Mean 2) (prophylactic, Row 2 (day 3)): 38.58
Temperature, group mean (Mean 2) (prophylactic, Row 3 (day 7)): 38.65
Temperature, group mean (Mean 2) (prophylactic, Row 4 (day 10)): 39.22
Temperature, group mean (Mean 2) (prophylactic, Row 5 (day 14)): 39.9
Temperature, group mean (Mean 2) (prophylactic, Row 6 (day 17)): 39.53
Temperature, group mean (Mean 2) (prophylactic, Row 7 (day 21)): 39.52
mean temperatures in the distinct groups (remained within the pre-infection range, all groups): less than 40 °C
Temperature (therapeutic (d3) group, day 0): 37.9 °C and 38.1 °C and 37.8 °C and 39.1 °C and 38.4 °C and 38.8 °C
Temperature (therapeutic (d3) group, day 3): 39.3 °C and 38.3 °C and 39.2 °C and 40 °C and 39.4 °C and 39.1 °C
Temperature (therapeutic (d3) group, day 7): 38.9 °C and 38.7 °C and 39.4 °C (2×) and 39.8 °C (2×)
Temperature (therapeutic (d3) group, day 10): 38.4 °C and 39 °C and 39.3 °C and 39.6 °C and 39.7 °C and 40.3 °C
Temperature (therapeutic (d3) group, day 14): 39.1 °C (2×) and 38.7 °C and 39.5 °C (2×) and 39.6 °C
Temperature (therapeutic (d3) group, day 17): 39.1 °C and 39.5 °C (2×) and 39.8 °C and 39.4 °C
Temperature (therapeutic (d3) group, day 21): 39.1 °C and 38.8 °C (2×) and 39.8 °C and 40 °C
Temperature, group mean (Mean 2) (therapeutic (d3), Row 1 (day 0)): 38.35
Temperature, group mean (Mean 2) (therapeutic (d3), Row 2 (day 3)): 39.22
Temperature, group mean (Mean 2) (therapeutic (d3), Row 3 (day 7)): 39.33
Temperature, group mean (Mean 2) (therapeutic (d3), Row 4 (day 10)): 39.38
Temperature, group mean (Mean 2) (therapeutic (d3), Row 5 (day 14)): 39.25
Temperature, group mean (Mean 2) (therapeutic (d3), Row 6 (day 17), N = 5): 39.46
Temperature, group mean (Mean 2) (therapeutic (d3), Row 7 (day 21), N = 5): 39.3
Temperature (therapeutic (d7) group, day 0): 38.4 °C and 38.3 °C and 38 °C and 37.9 °C (2×) and 38.1 °C
Temperature (therapeutic (d7) group, day 3): 39.3 °C (2×) and 39.4 °C (2×) and 38.6 °C and 39.2 °C
Temperature (therapeutic (d7) group, day 7): 40 °C (2×) and 39.2 °C (2×) and 38.7 °C and 39.4 °C
Temperature, group mean (Mean 2) (therapeutic (d7), Row 1 (day 0)): 38.1
Temperature, group mean (Mean 2) (therapeutic (d7), Row 2 (day 3)): 39.2
Temperature, group mean (Mean 2) (therapeutic (d7), Row 3 (day 7)): 39.42
Temperature, group mean (Mean 2) (therapeutic (d7), Row 4 (day 10)): 39.25
Temperature, group mean (Mean 2) (therapeutic (d7), Row 5 (day 14)): 39.35
Temperature, group mean (Mean 2) (therapeutic (d7), Row 6 (day 17)): 39.47
Temperature, group mean (Mean 2) (therapeutic (d7), Row 7 (day 21)): 39.32
